Test results as given in patent US8791131B2, “Imidazo[1,5]naphthyridine compounds, their pharmaceutical use and compositions” (Pfizer Inc., priority 2008, dated 2014).

Experiments:
[1] = test system: PI3-K (phosphorylation of AKT at serine 473) in BT20 cells; assay: PI3-Kα cellular assay (phospho-AKT Ser473 ELISA in BT20 cells); conditions: Homo sapiens, BT-20, 1 h, read-out: S473 pAKT 10% FBS IC50 (μM);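 further: lysates read by ELISA with TMB colour at 450 nm, cells given 0.5% DMSO vehicle serve as positive control and cell-free wells as negative control, duplicate wells per concentration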
[2] = target: mTOR (Homo sapiens (Human), UniProt P42345)
mTOR, sequence (P42345 2156-2469): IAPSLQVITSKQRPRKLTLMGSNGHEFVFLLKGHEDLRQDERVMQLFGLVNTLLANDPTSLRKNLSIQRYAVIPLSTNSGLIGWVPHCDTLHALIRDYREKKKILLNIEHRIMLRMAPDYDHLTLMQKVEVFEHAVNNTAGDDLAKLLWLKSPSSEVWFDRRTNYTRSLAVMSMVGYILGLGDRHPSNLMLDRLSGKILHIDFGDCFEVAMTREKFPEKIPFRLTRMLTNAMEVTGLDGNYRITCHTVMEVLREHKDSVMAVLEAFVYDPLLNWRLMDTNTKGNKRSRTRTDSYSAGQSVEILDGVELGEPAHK

[3] = target: PI3-Kα (Mus musculus (Mouse), UniProt P42337); assay: PI3-Kα biochemical assay (in vitro kinase assay, fluorescence polarization); conditions: Ki calculated from IC50, [ATP]=30 uM, Km=25 uM;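 further: Insect-cell-expressed mouse p110/p85 complex converting PI(4,5)P2, product PI(3,4,5)P3 detected by displacing TAMRA-tagged PI(3,4,5)P3 from Grip1 PH domain, lower polarization means more product, room temperature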
PI3-Kα, sequence (P42337 whole entry, the tested form may be a part): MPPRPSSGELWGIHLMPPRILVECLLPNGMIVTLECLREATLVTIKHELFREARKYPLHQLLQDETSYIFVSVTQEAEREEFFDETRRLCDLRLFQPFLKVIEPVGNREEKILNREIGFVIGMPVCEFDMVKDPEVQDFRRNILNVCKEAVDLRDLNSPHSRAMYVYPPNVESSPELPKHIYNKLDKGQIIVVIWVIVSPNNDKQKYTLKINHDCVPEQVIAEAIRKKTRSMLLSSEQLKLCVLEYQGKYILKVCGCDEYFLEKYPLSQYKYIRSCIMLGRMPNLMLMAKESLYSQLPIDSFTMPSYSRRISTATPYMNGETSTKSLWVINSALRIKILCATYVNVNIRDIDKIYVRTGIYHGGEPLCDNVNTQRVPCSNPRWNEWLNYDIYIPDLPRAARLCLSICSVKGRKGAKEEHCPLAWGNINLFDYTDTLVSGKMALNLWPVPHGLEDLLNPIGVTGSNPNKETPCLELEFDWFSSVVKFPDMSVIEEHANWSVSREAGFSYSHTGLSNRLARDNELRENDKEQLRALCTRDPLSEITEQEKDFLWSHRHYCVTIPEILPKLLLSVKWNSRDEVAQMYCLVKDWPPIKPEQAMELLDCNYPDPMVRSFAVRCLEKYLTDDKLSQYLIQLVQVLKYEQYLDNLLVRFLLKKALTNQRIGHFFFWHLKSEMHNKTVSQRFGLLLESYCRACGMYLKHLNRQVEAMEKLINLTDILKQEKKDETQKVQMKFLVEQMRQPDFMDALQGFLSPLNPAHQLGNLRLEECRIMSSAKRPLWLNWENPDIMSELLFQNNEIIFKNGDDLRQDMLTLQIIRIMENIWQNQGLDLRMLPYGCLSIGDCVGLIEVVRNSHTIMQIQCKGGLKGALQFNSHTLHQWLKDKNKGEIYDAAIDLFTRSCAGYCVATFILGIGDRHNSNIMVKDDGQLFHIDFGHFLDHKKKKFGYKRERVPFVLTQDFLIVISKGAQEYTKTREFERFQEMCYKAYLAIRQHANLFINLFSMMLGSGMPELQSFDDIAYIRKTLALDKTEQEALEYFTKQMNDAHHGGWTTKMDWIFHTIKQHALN
PI3-Kα, sequence (P26450 whole entry partner, the tested form may be a part): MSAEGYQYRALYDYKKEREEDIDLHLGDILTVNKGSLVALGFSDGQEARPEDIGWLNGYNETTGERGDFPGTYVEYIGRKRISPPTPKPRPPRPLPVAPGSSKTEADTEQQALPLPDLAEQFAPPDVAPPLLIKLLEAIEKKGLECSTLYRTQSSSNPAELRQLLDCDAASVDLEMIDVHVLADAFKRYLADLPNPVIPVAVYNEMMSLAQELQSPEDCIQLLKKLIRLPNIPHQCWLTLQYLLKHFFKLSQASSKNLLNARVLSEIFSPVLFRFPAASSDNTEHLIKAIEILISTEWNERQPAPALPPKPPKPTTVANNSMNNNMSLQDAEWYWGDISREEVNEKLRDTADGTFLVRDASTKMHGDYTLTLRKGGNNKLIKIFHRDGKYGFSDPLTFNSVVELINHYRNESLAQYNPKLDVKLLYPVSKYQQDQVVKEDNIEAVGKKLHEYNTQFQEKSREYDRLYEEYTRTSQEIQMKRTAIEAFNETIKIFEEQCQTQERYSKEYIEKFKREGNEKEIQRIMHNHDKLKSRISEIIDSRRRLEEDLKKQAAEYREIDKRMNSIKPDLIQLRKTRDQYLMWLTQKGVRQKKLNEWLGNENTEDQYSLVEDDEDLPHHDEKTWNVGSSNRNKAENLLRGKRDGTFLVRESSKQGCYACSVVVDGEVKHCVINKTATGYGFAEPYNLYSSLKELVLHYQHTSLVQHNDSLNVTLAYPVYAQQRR

| SMILES | IC50 [1] [µM] | Ki [2] [nM] | PI3Ka Ki [3] [nM] |
| --- | --- | --- | --- |
| COc1ccc(-c2ccc3ncc4c(c3n2)n(C2CCN(CC(N)=O)CC2)c(=O)n4C)cn1 [Compound 139, 2-{4-[8-(6-methoxypyridin-3-yl)-3-methyl-2-oxo-2,3-dihydro-1H-imidazo[4,5-c][1,5]naphthyridin-1-yl]piperidin-1-yl}acetamide] | 0.00714 | 3.32 | 0.339 |
| COc1ccc(-c2ccc3ncc4c(c3n2)n(C2CCOCC2)c(=O)n4C)cn1 [Compound 140, 8-(6-methoxypyridin-3-yl)-3-methyl-1-(tetrahydro-2H-pyran-4-yl)-1,3-dihydro-2H-imidazo[4,5-c][1,5]naphthyridin-2-one] | 0.0185 | 7.74 | 0.668 |
| Cn1c(=O)n(C2CCN(CC(F)(F)F)CC2)c2c3nc(-c4cnc5ccccc5c4)ccc3ncc21 [Compound 141, 3-methyl-8-quinolin-3-yl-1-[1-(2,2,2-trifluoroethyl)piperidin-4-yl]-1,3-dihydro-2H-imidazo[4,5-c][1,5]naphthyridin-2-one] | 0.0148 | 9.56 | 20.5 |
| CNC(=O)N1CCC(n2c(=O)n(C)c3cnc4ccc(-c5ccc(OC)nc5)nc4c32)CC1 [Compound 142, 4-[8-(6-methoxypyridin-3-yl)-3-methyl-2-oxo-2,3-dihydro-1H-imidazo[4,5-c][1,5]naphthyridin-1-yl]-N-methylpiperidine-1-carboxamide] | 0.00919 | 1.6 | 1.15 |
| Cn1c(=O)n(C2CCN(C(=O)C(C)(C)O)CC2)c2c3nc(-c4cnc5ccccc5c4)ccc3ncc21 [Compound 143, 1-[1-(2-hydroxy-2-methylpropanoyl)piperidin-4-yl]-3-methyl-8-quinolin-3-yl-1,3-dihydro-2H-imidazo[4,5-c][1,5]naphthyridin-2-one] | 0.028 | 7.21 | 0.568 |
| CN(C)CC(=O)N1CCC(n2c(=O)n(C)c3cnc4ccc(-c5ccc(N(C)C)nc5)nc4c32)CC1 [Compound 144, 8-[6-(dimethylamino)pyridin-3-yl]-1-[1-(N,N-dimethylglycyl)piperidin-4-yl]-3-methyl-1,3-dihydro-2H-imidazo[4,5-c][1,5]naphthyridin-2-one] | 0.0153 | 7.99 | 2.1 |
| Cn1c(=O)n(C2CCN(C(=O)C(C)(C)N)CC2)c2c3nc(-c4cnc5ccccc5c4)ccc3ncc21 [Compound 145, 3-methyl-1-[1-(2-methylalanyl)piperidin-4-yl]-8-quinolin-3-yl-1,3-dihydro-2H-imidazo[4,5-c][1,5]naphthyridin-2-one] | 0.0117 | 13.3 | 3.92 |
| Cn1c(=O)n([C@H]2CC[C@H](O)CC2)c2c3nc(-c4cnc5ccccc5c4)ccc3ncc21 [Compound 146, 1-(trans-4-hydroxycyclohexyl)-3-methyl-8-quinolin-3-yl-1,3-dihydro-2H-imidazo[4,5-c][1,5]naphthyridin-2-one] | 0.00521 | 3.8 | 1.2 |
| Cn1c(=O)n([C@H]2CC[C@H](OCCO)CC2)c2c3nc(-c4cnc5ccccc5c4)ccc3ncc21 [Compound 147, 1-[trans-4-(2-hydroxyethoxy)cyclohexyl]-3-methyl-8-quinolin-3-yl-1,3-dihydro-2H-imidazol[4,5-c][1,5]naphthyridin-2-one] | 0.0107 | 10.1 | 1.08 |
| COc1ncc(-c2ccc3ncc4c(c3n2)n([C@H]2CC[C@H](OCCO)CC2)c(=O)n4C)cn1 [Compound 148, 1-[trans-4-(2-hydroxyethoxy)cyclohexyl]-8-(2-methoxypyrimidin-5-yl)-3-methyl-1,3-dihydro-2H-imidazo[4,5-c][1,5]naphthyridin-2-one] | 0.0263 | 13.4 | 2.09 |
| CN(C)c1ccc(-c2ccc3ncc4c(c3n2)n([C@H]2CC[C@H](OCCO)CC2)c(=O)n4C)cn1 [Compound 149, 8-[6-(dimethylamino)pyridin-3-yl]-1-[trans-4-(2-hydroxyethoxy)cyclohexyl]-3-methyl-1,3-dihydro-2H-imidazo[4,5-c][1,5]naphthyridin-2-one] | 0.0116 | 9.02 | 0.102 |
| CN(C)c1ccc(-c2ccc3ncc4c(c3n2)n(C2CCN(CC(F)(F)F)CC2)c(=O)n4C)cn1 [Compound 150, 8-[6-(dimethylamino)pyridin-3-yl]-3-methyl-1-[1-(2,2,2-trifluoroethyl)piperidin-4-yl]-1,3-dihydro-2H-imidazo[4,5-c][1,5]naphthyridin-2-one] | 0.0182 | 12.5 | 8.78 |
| Cc1ccc(-c2ccc3ncc4c(c3n2)n([C@H]2CC[C@H](OCCO)CC2)c(=O)n4C)cn1 [Compound 152, 1-[trans-4-(2-hydroxyethoxy)cyclohexyl]-3-methyl-8-(6-methylpyridin-3-yl)-1,3-dihydro-2H-imidazo[4,5-c][1,5]naphthyridin-2-one] | 0.00863 | 11.4 | 1.68 |
| COc1ncc(-c2ccc3ncc4c(c3n2)n(C2CCN(C(=O)[C@H](C)O)CC2)c(=O)n4C)cn1 [Compound 154, 1-{1-[(2S)-2-hydroxypropanoyl]piperidin-4-yl}-8-(2-methoxypyrimidin-5-yl)-3-methyl-1,3-dihydro-2H-imidazo[4,5-c][1,5]naphthyridin-2-one] | 0.0342 | 0.822 | 2.59 |
| COc1ncc(-c2ccc3ncc4c(c3n2)n(C2CCN(CC(=O)N(C)C)CC2)c(=O)n4C)cn1 [Compound 163, 2-{4-[8-(2-methoxypyrimidin-5-yl)-3-methyl-2-oxo-2,3-dihydro-1H-imidazo[4,5-c][1,5]naphthyridin-1-yl]piperidin-1-yl}-N,N-dimethylacetamide] | 0.037 | 18.4 | 4.7 |
| Cc1ccc(-c2ccc3ncc4c(c3n2)n(C2CCN(c3ncccn3)CC2)c(=O)n4C)cn1 [Compound 165, 3-methyl-8-(6-methylpyridin-3-yl)-1-(1-pyrimidin-2-ylpiperidin-4-yl)-1,3-dihydro-2H-imidazo[4,5-c][1,5]naphthyridin-2-one] | 0.0414 | 73.2 | 3.52 |
| Cc1ccc(-c2ccc3ncc4c(c3n2)n(C2CCN(CCO)CC2)c(=O)n4C)cn1 [Compound 166, 1-[1-(2-hydroxyethyl)piperidin-4-yl]-3-methyl-8-(6-methylpyridin-3-yl)-1,3-dihydro-2H-imidazo[4,5-c][1,5]naphthyridin-2-one] | 0.0356 | 17.6 | 1.77 |
| Cn1c(=O)n([C@H]2CC[C@H](O)CC2)c2c3nc(-c4cn[nH]c4)ccc3ncc21 [Compound 168, 1-(trans-4-hydroxycyclohexyl)-3-methyl-8-(1H-pyrazol-4-yl)-1,3-dihydro-2H-imidazo[4,5-c][1,5]naphthyridin-2-one] | 0.0197 | 0.204 | 4.17 |
| Cn1cc(-c2ccc3ncc4c(c3n2)n([C@H]2CC[C@H](O)CC2)c(=O)n4C)cn1 [Compound 170, 1-(trans-4-hydroxycyclohexyl)-3-methyl-8-(1-methyl-1H-pyrazo1-4-yl)-1,3-dihydro-2H-imidazo[4,5-c][1,5]naphthyridin-2-one] | 0.107 | 7.18 | 7.44 |
